According to US20100204128A1, “NOVEL PEPTIDES” (SANARE INVESTMENT AS, priority 2007, published 2010):
“And” between values parts separate entries of the source, which are not always exact repeats. Equal entries are not always repeated.

What was measured:
Format in all cases: cell-based
Conditions in all cases: for fluorescent readings: 24 hours, duplicate wells
TMX2-28 cells = test: AlmarBlue fluorescence cell growth test, TMX2-28 cells
Procedure: With that, the 5×10^−3M mixture contains about 0.42×10^−3M of each peptide. Furthermore, mixtures containing equal volumes of peptides SEQ ID NO:2-SEQ ID NO:7, SEQ ID NO:10 and SEQ ID NO:11 were also prepared (equal volumes of said re-feed media) to yield the following final six concentrations: […] With that, the 5×10^−3M mixture contains about […].
(§1) MCF-7 and T47D cells were seeded into 96-well plates at a density of 10,000 cells per well in 90 μL of appropriate culture medium. TMX2-28 cells were seeded into 96-well plates at a density of 5,000 cells per well in 90 μL of appropriate culture medium. Plates were placed in a 37° C., 5% CO2 incubator and cells were allowed to attach to the bottom of the well for 24 hours after which 10 μL of the appropriate refeed medium was added. Each concentration was tested in duplicate in each cell line. […] Cells were then incubated for 24 hours. Subsequently 10 μL of AlmarBlue (Biosource) was added to each well. After three hours, the fluorescence was detected using a Packard Instrument Plate Reader with 535/20 excitation and 590/20 emission filters.

MCF-7 cells = test: AlmarBlue fluorescence cell growth test, MCF-7 cells
Procedure: (§2) Re-feed media were prepared to yield the following final six concentrations of each of the 12 peptides: 5×10^−3, 5×10^−4, 5×10^−5, 5×10^−6, 5×10^−7, and 5×10^−8M. […] With that, the 5×10^−3M mixture contains about 0.42×10^−3M of each peptide. […] With that, the 5×10^−3M mixture contains about 0.42×10^−3M of each of said 8 peptides.
as §1

T47D cells = test: AlmarBlue fluorescence cell growth test, T47D cells
Procedure: as §2, §1

[1] = 5 × 10^−4 M (mixtures: total concentration), decrease vs DC5 = reduced cell growth
[2] = 5 × 10^−5 M (mixtures: total concentration)
[3] = 5 × 10^−6 M (mixtures: total concentration)
[4] = 5 × 10^−7 M (mixtures: total concentration)
[5] = 5 × 10^−8 M (mixtures: total concentration)
[6] = 5 × 10^−9 M (mixtures: total concentration)

SEQIDNO2: synthesised peptide identified in the 10 kDa blood fraction after acupuncture; sequence not printed in the text (KVGAHAGEYGAEALER; Derived from human blood sample)
fluorescent readings (TMX2-28 cells; [1]): 70121 and 70743 | fluorescent readings (TMX2-28 cells; [2]): 70162 and 68517 | fluorescent readings (TMX2-28 cells; [3]): 69083 and 71861 | fluorescent readings (TMX2-28 cells; [4]): 72557 and 73134 | fluorescent readings (TMX2-28 cells; [5]): 72061 and 73603 | fluorescent readings (TMX2-28 cells; [6]): 68910 and 72372 | fluorescent readings (MCF-7 cells; [1]): 68630 and 65876 | fluorescent readings (MCF-7 cells; [2]): 66492 and 66554 | fluorescent readings (MCF-7 cells; [3]): 65617 and 65531 | fluorescent readings (MCF-7 cells; [4]): 63699 and 63627 | fluorescent readings (MCF-7 cells; [5]): 63539 and 63477 | fluorescent readings (MCF-7 cells; [6]): 63298 and 62132 | fluorescent readings (T47D cells; [1]): 66780 and 68474 | fluorescent readings (T47D cells; [2]): 67257 and 66607 | fluorescent readings (T47D cells; [3]): 63525 and 67453 | fluorescent readings (T47D cells; [4]): 64064 and 66021 | fluorescent readings (T47D cells; [5]): 62463 and 63876 | fluorescent readings (T47D cells; [6]): 57744 and 60399

SEQIDNO1: synthesised peptide identified in the 10 kDa blood fraction after acupuncture; sequence not printed in the text (ASPVAPLDPLLKYGRGQPVSSASGTTTDLGQ; Derived from human blood sample)
fluorescent readings (TMX2-28 cells; [1]): 74129 and 72743 | fluorescent readings (TMX2-28 cells; [2]): 73649 and 71774 | fluorescent readings (TMX2-28 cells; [3]): 72975 and 71640 | fluorescent readings (TMX2-28 cells; [4]): 74503 and 75697 | fluorescent readings (TMX2-28 cells; [5]): 75445 and 77164 | fluorescent readings (TMX2-28 cells; [6]): 71409 and 71588 | fluorescent readings (MCF-7 cells; [1]): 69131 and 67176 | fluorescent readings (MCF-7 cells; [2]): 65474 and 66009 | fluorescent readings (MCF-7 cells; [3]): 65860 and 64140 | fluorescent readings (MCF-7 cells; [4]): 62613 and 62686 | fluorescent readings (MCF-7 cells; [5]): 63693 and 62463 | fluorescent readings (MCF-7 cells; [6]): 62279 and 60719 | fluorescent readings (T47D cells; [1]): 65814 and 66151 | fluorescent readings (T47D cells; [2]): 64794 and 65757 | fluorescent readings (T47D cells; [3]): 63241 and 63091 | fluorescent readings (T47D cells; [4]): 63036 and 62709 | fluorescent readings (T47D cells; [5]): 62633 and 62689 | fluorescent readings (T47D cells; [6]): 55767 and 59593

SEQIDNO8: synthesised peptide identified in the 10 kDa blood fraction after acupuncture; sequence not printed in the text (GVLLVRAPPACLQVLR; Derived from human blood sample)
fluorescent readings (TMX2-28 cells; [1]): 63114 and 65457 | fluorescent readings (TMX2-28 cells; [2]): 67475 and 69324 | fluorescent readings (TMX2-28 cells; [3]): 68833 and 70414 | fluorescent readings (TMX2-28 cells; [4]): 70559 and 72074 | fluorescent readings (TMX2-28 cells; [5]): 70603 and 73593 | fluorescent readings (TMX2-28 cells; [6]): 68676 and 68864 | fluorescent readings (MCF-7 cells; [1]): 64002 and 64485 | fluorescent readings (MCF-7 cells; [2]): 68720 and 70447 | fluorescent readings (MCF-7 cells; [3]): 69897 and 70376 | fluorescent readings (MCF-7 cells; [4]): 68985 and 70404 | fluorescent readings (MCF-7 cells; [5]): 68423 and 68263 | fluorescent readings (MCF-7 cells; [6]): 61653 and 66015 | fluorescent readings (T47D cells; [1]): 62688 and 60767 | fluorescent readings (T47D cells; [2]): 68041 and 64777 | fluorescent readings (T47D cells; [3]): 66479 and 60908 | fluorescent readings (T47D cells; [4]): 65388 and 63864 | fluorescent readings (T47D cells; [5]): 64353 and 63685 | fluorescent readings (T47D cells; [6]): 64124 and 63134

SEQIDNO4: synthesised peptide identified in the 10 kDa blood fraction after acupuncture; sequence not printed in the text (KFLQAKFYQLSLERP; Derived from human blood sample)
fluorescent readings (TMX2-28 cells; [1]): 68299 and 67310 | fluorescent readings (TMX2-28 cells; [2]): 67939 and 68552 | fluorescent readings (TMX2-28 cells; [3]): 69917 and 70618 | fluorescent readings (TMX2-28 cells; [4]): 70744 and 72469 | fluorescent readings (TMX2-28 cells; [5]): 71761 and 72585 | fluorescent readings (TMX2-28 cells; [6]): 70255 and 70823 | fluorescent readings (MCF-7 cells; [1]): 64475 and 66716 | fluorescent readings (MCF-7 cells; [2]): 63637 and 66597 | fluorescent readings (MCF-7 cells; [3]): 65699 and 66767 | fluorescent readings (MCF-7 cells; [4]): 64278 and 64885 | fluorescent readings (MCF-7 cells; [5]): 64878 and 64702 | fluorescent readings (MCF-7 cells; [6]): 61356 and 61062 | fluorescent readings (T47D cells; [1]): 65000 and 63427 | fluorescent readings (T47D cells; [2]): 66449 and 66303 | fluorescent readings (T47D cells; [3]): 66808 and 65677 | fluorescent readings (T47D cells; [4]): 65859 and 65314 | fluorescent readings (T47D cells; [5]): 66040 and 64619 | fluorescent readings (T47D cells; [6]): 57800 and 59394

c1ccc2c(c1)cc1ccc3cccc4ccc2c1c34 [BaP, Benzo[a]pyrene, reference compound]
effect on proliferation (in words) (TMX2-28 cells; 24 hours incubation): insufficient to decrease the proliferation | effect on proliferation (in words) (T47D cells; 24 hours incubation): insufficient to decrease the proliferation

CC/C(=C(\c1ccccc1)c1ccc(OCCN(C)C)cc1)c1ccccc1 [Tamoxifen, reference compound]
effect on proliferation (in words) (MCF-7 cells; 24 hours incubation): insufficient to decrease the proliferation

SEQIDNO6: synthesised peptide identified in the 10 kDa blood fraction after acupuncture; sequence not printed in the text (RKEGKGERE; Derived from human blood sample)
fluorescent readings (TMX2-28 cells; [1]): 68949 and 68566 | fluorescent readings (TMX2-28 cells; [2]): 70355 and 69358 | fluorescent readings (TMX2-28 cells; [3]): 70389 and 69887 | fluorescent readings (TMX2-28 cells; [4]): 71096 and 70512 | fluorescent readings (TMX2-28 cells; [5]): 70707 and 71208 | fluorescent readings (TMX2-28 cells; [6]): 62308 and 64367 | fluorescent readings (MCF-7 cells; [1]): 69282 and 66723 | fluorescent readings (MCF-7 cells; [2]): 69071 and 69114 | fluorescent readings (MCF-7 cells; [3]): 67961 and 70454 | fluorescent readings (MCF-7 cells; [4]): 66967 and 68329 | fluorescent readings (MCF-7 cells; [5]): 65221 and 65987 | fluorescent readings (MCF-7 cells; [6]): 60855 and 61454 | fluorescent readings (T47D cells; [1]): 60992 and 68394 | fluorescent readings (T47D cells; [2]): 57868 and 68983 | fluorescent readings (T47D cells; [3]): 66902 and 68862 | fluorescent readings (T47D cells; [4]): 65508 and 66620 | fluorescent readings (T47D cells; [5]): 65244 and 64730 | fluorescent readings (T47D cells; [6]): 61392 and 63577

SEQIDNO9: synthesised peptide identified in the 10 kDa blood fraction after acupuncture; sequence not printed in the text (SSNNGCMRDPTLYRCK; Derived from human blood sample)
fluorescent readings (TMX2-28 cells; [1]): 71608 and 70176 | fluorescent readings (TMX2-28 cells; [2]): 69255 and 69328 | fluorescent readings (TMX2-28 cells; [3]): 69234 and 68280 | fluorescent readings (TMX2-28 cells; [4]): 67663 and 69155 | fluorescent readings (TMX2-28 cells; [5]): 67229 and 67807 | fluorescent readings (TMX2-28 cells; [6]): 68009 and 65131 | fluorescent readings (MCF-7 cells; [1]): 67879 and 68176 | fluorescent readings (MCF-7 cells; [2]): 65563 and 69218 | fluorescent readings (MCF-7 cells; [3]): 65046 and 65931 | fluorescent readings (MCF-7 cells; [4]): 63071 and 65962 | fluorescent readings (MCF-7 cells; [5]): 57728 and 62231 | fluorescent readings (MCF-7 cells; [6]): 62556 and 61065 | fluorescent readings (T47D cells; [1]): 67492 and 77427 | fluorescent readings (T47D cells; [2]): 63181 and 64535 | fluorescent readings (T47D cells; [3]): 62848 and 62359 | fluorescent readings (T47D cells; [4]): 63130 and 68689 | fluorescent readings (T47D cells; [5]): 60146 and 64467 | fluorescent readings (T47D cells; [6]): 65094 and 67070

SEQIDNO3: synthesised peptide identified in the 10 kDa blood fraction after acupuncture; sequence not printed in the text (KTFTVTEGSMAGGAWGRL; Derived from human blood sample)
fluorescent readings (TMX2-28 cells; [1]): 68963 and 67344 | fluorescent readings (TMX2-28 cells; [2]): 69237 and 66454 | fluorescent readings (TMX2-28 cells; [3]): 71007 and 67496 | fluorescent readings (TMX2-28 cells; [4]): 72558 and 69648 | fluorescent readings (TMX2-28 cells; [5]): 72686 and 69197 | fluorescent readings (TMX2-28 cells; [6]): 69066 and 70821 | fluorescent readings (MCF-7 cells; [1]): 63831 and 65178 | fluorescent readings (MCF-7 cells; [2]): 64053 and 64928 | fluorescent readings (MCF-7 cells; [3]): 64217 and 64899 | fluorescent readings (MCF-7 cells; [4]): 62452 and 66233 | fluorescent readings (MCF-7 cells; [5]): 61563 and 63132 | fluorescent readings (MCF-7 cells; [6]): 62603 and 61621 | fluorescent readings (T47D cells; [1]): 61359 and 61718 | fluorescent readings (T47D cells; [2]): 66736 and 61724 | fluorescent readings (T47D cells; [3]): 65079 and 58554 | fluorescent readings (T47D cells; [4]): 64329 and 59141 | fluorescent readings (T47D cells; [5]): 61766 and 61031 | fluorescent readings (T47D cells; [6]): 59482 and 59451
